Where two headings read alike, the source gives them in different places. Marks after values point to notes of the source that are not given here.

The test system of data set [1] is SARS-CoV-2. The format is cell-based. The following applies: for Virus CCID50 per well ± SD: 22±2°C, average of 3 replicates; for LRV (log reduction value): compared to the virus control.
The next data set has as its system influenza virus. The settings on record: cited from earlier work.
Data set [2] concerns SARS-CoV-2. The settings on record: cited from earlier work.

Consider `CCO` [EtOH (63%), Ethanol], for which, in the data set with Vero 76 cells, the cytotoxicity in culture entry is recorded as “cytotoxic”. Besides, the “Virus CCID50 per well ± SD” value with SARS-CoV-2 [1] (contact time 2 minutes) and in the data set on SARS-CoV-2 [1] (contact time 10 minutes) was <1.7**** log CCID50 per 0.1 mL in each case. For the same compound, the “LRV (log reduction value)” value in the data set with SARS-CoV-2 [1] (contact time 2 minutes) and in the data set with SARS-CoV-2 [1] (contact time 10 minutes) was more than 2.2 log10 throughout.
As to `CCOC(=O)C1=C[C@@H](OC(CC)CC)[C@H](NC(C)=O)[C@@H](N)C1` [Oseltamivir], the “influenza RNA concentration decrease” value in the data set on influenza virus (on day 2) is given as −1.19 log10 copies/mL; in the data set with influenza virus (on day 4) it was −0.68 log10 copies/mL.
Consider “LY-CoV555: SARS-CoV-2 neutralizing antibody”, for which the “relative SARS-CoV-2 RNA decrease versus placebo” value with SARS-CoV-2 [2] (day 3) is on record as −0.64 log10 copies/mL; in the data set with SARS-CoV-2 [2] (day 7), −0.45 log10 copies/mL.
